Experimental data published in US11104664B2, “4,5,6-trisubstituted indazole derivatives, and preparation method and pharmaceutical use thereof” (SHANGHAI HAIYAN PHARMACEUTICAL TECHNOLOGY CO., LTD., priority 2016, dated 2021).

What was measured:
[1] = molecular target: Recombinant PRC2 (EZH2-Y641F) (Homo sapiens (Human), UniProt Q15910, Y641F); test: In vitro methyltransferase activity assay (LANCE Ultra); type: biochemical; settings: for IC50: 2.5 μM SAM/250 nM H3(1-50)K27me1, 3 hours, room temperature
Procedure: Recombinant PRC2 (EZH2-Y641F) was purchased from Active motif, S-adenosyl-methionine (SAM) and Poly-L-lysine (PLL) were purchased from Sigma-Aldrich, and H3(1-50)K27me1 peptide was purchased from Cisbio. LANCEUltrasystem (Perkinelmer) was used for detection system. In the enzyme activity test, compounds to be tested were diluted by 8 gradient points in a ratio of 1:3, and added into each well in a reaction plate, and 100 ng recombinase was added, followed by a buffer [20 mM Tris pH8.5, 2 mM MgCl2, 0.01% Tween-20, 1 mM TCEP] containing 2.5 μM SAM/250 nM H3 (1-50)K27me1 premixtures. Enzymatic reaction thus began at room temperature. After reacted for 3 hours, a detection solution premixed with PLL, detection antibody and Ulight was added, and reacted for 1 hour at room temperature. The fluorescence value was then read on a Tecan infinite pro. IC50 was calculated by fitting in a four-factor model in the XLfit software.

Pfeiffer cells = test: Cell proliferation assay (Cell counting kit-8, 6 days); type: cell-based; settings: Pfeiffer (CRL-2632), 6 days culture
Procedure: The used cell lines Pfeiffer (CRL-2632), suDHL-6 (CRL-2959) and suDHL-10 (CRL-2963) were obtained from American Type Culture Collection (ATCC). All cell lines were cultured in RPMI-1640 medium (Gibco) containing 10% fetal bovine serum (Gibco). The cultured cells were harvested by centrifugation and the cell density was determined using a CounterStar cell counter. Appropriate number of cells were plated in a 96-well culture plate and incubated overnight. Compounds to be tested were diluted by 8 gradient points in a ratio of 1:3 and added into corresponding wells. After continuing to culture for 6 days, the number of viable cells was measured with Cell counting kit-8, and the absorbance value was read on Tecan infinite pro. The IC50 was calculated by fitting in a four-parameter model in the XLfit software.

Recombinant PRC2 (EZH2-Y641F), sequence (Q15910 whole entry Y641F): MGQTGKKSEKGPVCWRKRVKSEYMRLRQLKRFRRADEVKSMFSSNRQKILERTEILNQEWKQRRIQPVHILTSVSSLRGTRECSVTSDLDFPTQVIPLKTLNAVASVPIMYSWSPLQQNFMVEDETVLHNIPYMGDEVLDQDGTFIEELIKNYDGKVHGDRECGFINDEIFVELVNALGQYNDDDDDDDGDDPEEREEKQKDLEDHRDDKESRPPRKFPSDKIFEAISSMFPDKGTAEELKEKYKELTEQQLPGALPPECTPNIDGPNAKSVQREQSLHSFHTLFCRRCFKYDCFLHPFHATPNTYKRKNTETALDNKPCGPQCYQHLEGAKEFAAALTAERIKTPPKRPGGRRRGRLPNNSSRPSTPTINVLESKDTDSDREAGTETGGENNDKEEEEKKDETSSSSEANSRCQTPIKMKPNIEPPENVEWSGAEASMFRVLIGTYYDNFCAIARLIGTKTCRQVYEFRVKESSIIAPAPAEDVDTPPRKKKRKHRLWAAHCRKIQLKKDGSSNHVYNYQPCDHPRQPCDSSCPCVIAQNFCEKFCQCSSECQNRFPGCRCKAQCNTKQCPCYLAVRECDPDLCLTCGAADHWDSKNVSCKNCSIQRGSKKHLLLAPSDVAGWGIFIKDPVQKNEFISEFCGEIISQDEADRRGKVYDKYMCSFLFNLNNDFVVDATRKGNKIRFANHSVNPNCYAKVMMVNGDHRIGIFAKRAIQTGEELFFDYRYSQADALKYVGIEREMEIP
Recombinant PRC2 (EZH2-Y641F), sequence (O75530 whole entry partner): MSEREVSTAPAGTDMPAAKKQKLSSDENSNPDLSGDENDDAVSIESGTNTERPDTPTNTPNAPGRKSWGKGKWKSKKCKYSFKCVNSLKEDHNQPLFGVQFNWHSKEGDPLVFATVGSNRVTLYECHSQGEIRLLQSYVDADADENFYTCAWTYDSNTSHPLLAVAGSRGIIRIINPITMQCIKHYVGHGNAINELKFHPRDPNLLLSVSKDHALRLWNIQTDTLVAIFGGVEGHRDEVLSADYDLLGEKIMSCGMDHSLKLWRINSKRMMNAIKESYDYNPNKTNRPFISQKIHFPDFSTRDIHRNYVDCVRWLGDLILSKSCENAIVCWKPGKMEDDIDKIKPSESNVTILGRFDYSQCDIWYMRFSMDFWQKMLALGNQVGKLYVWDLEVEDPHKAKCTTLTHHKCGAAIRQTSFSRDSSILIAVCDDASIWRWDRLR
Recombinant PRC2 (EZH2-Y641F), sequence (Q15022 whole entry partner): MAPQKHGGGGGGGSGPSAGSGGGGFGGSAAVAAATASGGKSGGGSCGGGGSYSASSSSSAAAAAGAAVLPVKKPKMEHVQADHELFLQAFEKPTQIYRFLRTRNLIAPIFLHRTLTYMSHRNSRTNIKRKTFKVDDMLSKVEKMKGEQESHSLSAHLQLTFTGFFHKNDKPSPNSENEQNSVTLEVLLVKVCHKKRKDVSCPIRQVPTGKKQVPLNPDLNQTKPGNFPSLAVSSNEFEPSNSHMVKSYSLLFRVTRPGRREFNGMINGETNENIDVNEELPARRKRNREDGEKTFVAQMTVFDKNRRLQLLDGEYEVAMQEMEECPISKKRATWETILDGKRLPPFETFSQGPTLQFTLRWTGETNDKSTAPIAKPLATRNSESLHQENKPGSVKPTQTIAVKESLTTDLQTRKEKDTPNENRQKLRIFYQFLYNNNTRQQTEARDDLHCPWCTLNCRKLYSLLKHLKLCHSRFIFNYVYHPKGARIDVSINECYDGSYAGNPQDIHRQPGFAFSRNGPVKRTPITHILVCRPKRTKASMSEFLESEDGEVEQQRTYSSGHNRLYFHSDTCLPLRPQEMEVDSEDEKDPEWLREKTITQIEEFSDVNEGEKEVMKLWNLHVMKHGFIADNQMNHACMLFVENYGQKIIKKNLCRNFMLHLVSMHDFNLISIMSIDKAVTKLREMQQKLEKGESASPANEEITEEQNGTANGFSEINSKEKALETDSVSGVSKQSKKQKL
Recombinant PRC2 (EZH2-Y641F), sequence (Q09028 whole entry partner): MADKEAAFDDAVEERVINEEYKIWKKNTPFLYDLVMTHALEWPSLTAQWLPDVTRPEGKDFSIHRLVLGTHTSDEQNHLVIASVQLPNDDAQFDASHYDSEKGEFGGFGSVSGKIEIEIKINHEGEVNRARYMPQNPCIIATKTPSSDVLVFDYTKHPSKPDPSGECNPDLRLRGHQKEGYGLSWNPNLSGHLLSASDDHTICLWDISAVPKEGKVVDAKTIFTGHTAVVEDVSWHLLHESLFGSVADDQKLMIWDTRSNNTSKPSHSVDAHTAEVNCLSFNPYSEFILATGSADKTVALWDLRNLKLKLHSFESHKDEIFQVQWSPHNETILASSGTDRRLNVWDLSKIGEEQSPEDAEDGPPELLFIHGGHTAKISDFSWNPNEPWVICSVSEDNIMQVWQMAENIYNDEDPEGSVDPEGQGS
Recombinant PRC2 (EZH2-Y641F), sequence (Q6ZN18 whole entry partner): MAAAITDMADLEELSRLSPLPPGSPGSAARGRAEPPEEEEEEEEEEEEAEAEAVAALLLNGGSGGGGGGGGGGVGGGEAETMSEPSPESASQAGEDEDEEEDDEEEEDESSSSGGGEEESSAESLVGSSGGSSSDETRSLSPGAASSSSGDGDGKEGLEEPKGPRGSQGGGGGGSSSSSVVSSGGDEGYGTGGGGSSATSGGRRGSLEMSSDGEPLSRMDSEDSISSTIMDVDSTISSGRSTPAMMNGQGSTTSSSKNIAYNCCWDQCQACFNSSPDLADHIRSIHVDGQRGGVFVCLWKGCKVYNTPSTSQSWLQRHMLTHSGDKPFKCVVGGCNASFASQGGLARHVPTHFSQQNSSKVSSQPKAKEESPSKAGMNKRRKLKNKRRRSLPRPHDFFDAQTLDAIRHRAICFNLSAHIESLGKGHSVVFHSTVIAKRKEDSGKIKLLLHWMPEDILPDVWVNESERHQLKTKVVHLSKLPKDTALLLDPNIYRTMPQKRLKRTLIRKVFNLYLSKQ

Row | SMILES | IC50 [1] [nM] | inhibitory activity against the enzyme (in words) ([1]; SAR comment on Table 1, reduced relative to comparator compounds (P-7, P-13/14)) | IC50 (Pfeiffer cells) [nM] | IC50 (Pfeiffer cells; Homo sapiens, 144 h) [nM]
1 | CCc1c(C(=O)NCc2c(OC)cc(C)[nH]c2=O)cc2c(cnn2C)c1N(C)[C@H]1CC[C@H](N(C)CCOC)CC1 [P-21, 5-ethyl-4-(methyl((1R, 4R)-4-((2-methoxyethyl) (methyl)amino)cyclohexyl)amino)-N-((4-methoxy-6-methyl-2-oxo-1,2-dihydropyridin-3-yl)methyl)-1-methyl-1H-indazole-6-carboxamide] | 14 |  | 32 | 
2 | CCc1c(C(=O)NCc2c(C)cc(C)[nH]c2=O)cc2c(cnn2C)c1N(CC)C1CCC(NC(F)(F)F)CC1 (stereo not shown) [P-25] | 46 |  |  | 278
3 | CCN(c1c(C#N)c(C(=O)NCc2c(C)cc(C)[nH]c2=O)cc2c1cnn2C)C1CCOCC1 [P-27] | 1750 |  |  | > 10000
4 | CCN(c1c(C2CC2)c(C(=O)NCc2c(C)cc(C)[nH]c2=O)cc2c1cnn2C)C1CCOCC1 [P-28] | 402 |  |  | 702
5 | CCc1c(C(=O)NCc2c(C)cc(C)[nH]c2=O)cc2c(cnn2C)c1N(CC)C1CCC(N2CCNCC2)CC1 (stereo not shown) [P-29] | 34 |  |  | 191
6 | CCc1c(C(=O)NCc2c(C)cc(C)[nH]c2=O)cc2c(cnn2C)c1N(CC)C1CCC(N2CCN(C)CC2)CC1 (stereo not shown) [P-30] | 46 |  |  | 201
7 | CCN(c1c(C)c(C(=O)NCc2c(C)cc(C)[nH]c2=O)cc2c1cnn2C)C1CCC(N2CC(F)(F)C2)CC1 (stereo not shown) [P-31] | 15 |  |  | 130
8 | CCN(c1c(C)c(C(=O)NCc2c(C)cc(C)[nH]c2=O)cc2c1cnn2C)C1CCC(N(C)CCN(C)C)CC1 (stereo not shown) [P-34] | 26 |  |  | 196
9 | CCc1c(C(=O)NCc2c(C)cc(C)[nH]c2=O)cc2c(cnn2C)c1N(CC)C1CCC(N2CC(OCC(F)(F)F)C2)CC1 (stereo not shown) [P-36] | 13 |  |  | 3
10 | CCN(c1c(C)c(C(=O)NCc2c(C)cc(C)[nH]c2=O)cc2c1c(F)nn2C)C1CCOCC1 [P-41] | 425 | greatly reduced |  | 2000
11 | CCN(c1ccc(CN(C)C)cc1)c1c(C)c(C(=O)NCc2c(C)cc(C)[nH]c2=O)cc2c1cnn2C [P-43] | 33 |  |  | 123
12 | CCN(c1c(C)c(C(=O)NCc2c(C)cc(C)[nH]c2=O)cc2c1cnn2C)C1CCC(N(C)CC(F)(F)F)CC1 (stereo not shown) [P-44, N-((4,6-dimethyl-2-oxo-1,2-dihydropyridin-3-yl)methyl)-4-(ethyl(4-(methyl(2,2,2-trifluoroethyl)amino)cyclohexyl)amino)-1,5-dimethyl-1H-indazole-6-carboxamide] | 60 |  |  | 300
13 | CCN(c1c(C)c(C(=O)NCc2c(C)cc(C)[nH]c2=O)cc2c1cnn2C)C1CCN(C2COC2)CC1 [P-48, N-((4,6-dimethyl-2-oxo-1,2-dihydropyridin-3-yl)methyl)-4-(ethyl(1-(oxetane-3-yl)piperidin-4-yl)amino)-1,5-dimethyl-1H-indazole-6-carboxamide] | 49 |  |  | 305

Now those with a lower IC50 [1], led by results:

Row | IC50 [1] [nM] | inhibitory activity against the enzyme (in words) ([1]; SAR comment on Table 1, reduced relative to comparator compounds (P-7, P-13/14)) | SMILES | IC50 (Pfeiffer cells) [nM] | IC50 (Pfeiffer cells; Homo sapiens, 144 h) [nM]
14 | 5 |  | CCc1c(C(=O)NCc2c(OC)cc(C)[nH]c2=O)cc2c(cnn2C)c1N(CC)C1CCC(N(C)C)CC1 (stereo not shown) [P-22, 4-((4-(dimethylamino)cyclohexyl)(ethyl)amino)-5-ethyl-N-((4-methoxy-6-methyl-2-oxo-1,2-dihydropyridin-3-yl)methyl) 1-methyl-1H-indazole-6-carboxamide] | 66 | 
15 | 5 |  | CCc1c(C(=O)NCc2c(C)cc(C)[nH]c2=O)cc2c(cnn2C)c1N(CC)C1CCC(N(C)C)CC1 (stereo not shown) [P-23] |  | 25
16 | 9 |  | CCc1c(C(=O)NCc2c(C)cc(C)[nH]c2=O)cc2c(cnn2C)c1N(CC)C1CCC(N2CCOCC2)CC1 (stereo not shown) [P-24] |  | 169
17 | 8 |  | CCN(c1c(C)c(C(=O)NCc2c(C)cc(C)[nH]c2=O)cc2c1cnn2C)C1CCC(CN(C)C)CC1 (stereo not shown) [P-26] |  | 48
18 | 12 |  | CCN(c1c(C)c(C(=O)NCc2c(C)cc(C)[nH]c2=O)cc2c1cnn2C)C1CCC(N2CCCCC2)CC1 (stereo not shown) [P-32] |  | 59
19 | 12 |  | CCN(c1c(C)c(C(=O)NCc2c(C)cc(C)[nH]c2=O)cc2c1cnn2C)C1CCC(N2CC(OCC(F)(F)F)C2)CC1 (stereo not shown) [P-37] |  | 297
20 | 7 |  | CCOC1CN(C2CCC(N(CC)c3c(CC)c(C(=O)NCc4c(C)cc(C)[nH]c4=O)cc4c3cnn4C)CC2)C1 (stereo not shown) [P-39] |  | 5
21 | 7 |  | CCc1c(C(=O)NCc2c(C)cc(C)[nH]c2=O)cc2c(cnn2C)c1N(CC)C1CCC(N2CC(O)C2)CC1 (stereo not shown) [P-47, N-((4,6-dimethyl-2-oxo-1,2-dihydropyridin-3-yl)methyl)-5-ethyl-4-(ethyl(4-(3-hydroxyazetidin-1-yl)cyclohexyl)amino)-1-methyl-1H-indazole-6-carboxamide] |  | 178
